Patent US11691980B2, “Liphagal analog and multi-targeted kinase inhibitor containing liphagal or analog thereof” (TOHOKU UNIVERSITY, priority 2017, dated 2023)

Experiments:
Type in all cases: biochemical
PIM2 = PIM2 (Homo sapiens, UniProt Q9P1W9); assay: mobility shift assay
WNK2 = target: T1, WNK2 (Homo sapiens, UniProt Q9Y3S1); assay: mobility shift assay
T1 construct: purchased Carna Biosciences

RET(M918T) = target: T2, RET(M918T) (Homo sapiens, UniProt P07949, M918T); assay: mobility shift assay
T2 construct: purchased Carna Biosciences

BRAF(V600E)_Cascade = target: T3, BRAF(V600E)_Cascade (Homo sapiens, UniProt P15056, V600E); assay: mobility shift assay
T3 construct: purchased Carna Biosciences

MUSK = target: T4, MUSK (Homo sapiens, UniProt O15146); assay: mobility shift assay
T4 construct: purchased Carna Biosciences

PDHK4 = target: T5, PDHK4 (Homo sapiens, UniProt Q16654); assay: mobility shift assay
T5 construct: purchased Carna Biosciences

TRKA = target: T6, TRKA (Homo sapiens, UniProt P04629); assay: mobility shift assay
T6 construct: purchased Carna Biosciences

KIT = target: T7, KIT (Homo sapiens, UniProt P10721); assay: mobility shift assay
T7 construct: purchased Carna Biosciences

EPHA1 = target: T8, EPHA1 (Homo sapiens, UniProt P21709); assay: mobility shift assay
T8 construct: purchased Carna Biosciences

Haspin = target: T9, Haspin (Homo sapiens, UniProt Q8TF76); assay: mobility shift assay
T9 construct: purchased Carna Biosciences

OK1δ = target: T10, OK1δ (Homo sapiens, UniProt P48730); assay: mobility shift assay
T10 construct: purchased Carna Biosciences

AKT2 = target: T11, AKT2 (Homo sapiens, UniProt P31751); assay: mobility shift assay
T11 construct: purchased Carna Biosciences

JNK3 = target: T12, JNK3 (Homo sapiens, UniProt P53779); assay: mobility shift assay
T12 construct: purchased Carna Biosciences

MGC42105 = target: T13, MGC42105 (Homo sapiens, UniProt Q8IY84); assay: mobility shift assay
T13 construct: purchased Carna Biosciences

DYRK1A = target: T14, DYRK1A (Homo sapiens, UniProt Q13627); assay: mobility shift assay
T14 construct: purchased Carna Biosciences

BRAF_Cascade = target: T15, BRAF_Cascade (Homo sapiens, UniProt P15056); assay: mobility shift assay
T15 construct: purchased Carna Biosciences

MAP2K1 Cascade = target: T16, MAP2K1 Cascade (Homo sapiens, UniProt Q02750); assay: mobility shift assay
T16 construct: purchased Carna Biosciences

p38B = target: T17, p38B (Homo sapiens, UniProt Q15759); assay: mobility shift assay
T17 construct: purchased Carna Biosciences

COK6/CycD3 = target: T18, COK6/CycD3 (Homo sapiens, UniProt Q00534); assay: mobility shift assay
T18 construct: purchased Carna Biosciences

HER4 = target: T19, HER4 (Homo sapiens, UniProt Q15303); assay: mobility shift assay
T19 construct: purchased Carna Biosciences

MAP2K3_Cascade = target: T20, MAP2K3_Cascade (Homo sapiens, UniProt P46734); assay: mobility shift assay
T20 construct: purchased Carna Biosciences

SRM = target: T21, SRM (Homo sapiens, UniProt Q9H3Y6); assay: mobility shift assay
T21 construct: purchased Carna Biosciences

MNK1 = target: T22, MNK1 (Homo sapiens, UniProt Q9BUB5); assay: mobility shift assay
T22 construct: purchased Carna Biosciences

CDK9/CvcT1 = target: T23, CDK9/CvcT1 (Homo sapiens, UniProt P50750); assay: mobility shift assay
T23 construct: purchased Carna Biosciences

SGK3 = target: T24, SGK3 (Homo sapiens, UniProt Q96BR1); assay: mobility shift assay
T24 construct: purchased Carna Biosciences

SkMLCK = target: T25, SkMLCK (Homo sapiens, UniProt Q9H1R3); assay: mobility shift assay
T25 construct: purchased Carna Biosciences

EGFR(d746-750/T790M) = target: T26, EGFR(d746-750/T790M) (Homo sapiens, UniProt P00533, DEL746-750/T790M); assay: mobility shift assay
T26 construct: purchased Carna Biosciences

PIM 3 = target: T27, PIM 3 (Homo sapiens, UniProt Q86V86); assay: mobility shift assay
T27 construct: purchased Carna Biosciences

FLT3 = target: T28, FLT3 (Homo sapiens, UniProt P36888); assay: mobility shift assay
T28 construct: purchased Carna Biosciences

MER = target: T29, MER (Homo sapiens, UniProt Q12866); assay: mobility shift assay
T29 construct: purchased Carna Biosciences

FGFR1 = target: T30, FGFR1 (Homo sapiens, UniProt P11362); assay: mobility shift assay
T30 construct: purchased Carna Biosciences

M88K1 = target: T31, M88K1 (Homo sapiens, UniProt Q9UPE1); assay: mobility shift assay
T31 construct: purchased Carna Biosciences

CK1y3 = target: T32, CK1y3 (Homo sapiens, UniProt Q9Y6M4); assay: mobility shift assay
T32 construct: purchased Carna Biosciences

MAP2K5 Cascade = target: T33, MAP2K5 Cascade (Homo sapiens, UniProt Q13163); assay: mobility shift assay
T33 construct: purchased Carna Biosciences

FM8 = target: T34, FM8 (Homo sapiens, UniProt P07333); assay: mobility shift assay
T34 construct: purchased Carna Biosciences

EPHA2 = target: T35, EPHA2 (Homo sapiens, UniProt P29317); assay: mobility shift assay
T35 construct: purchased Carna Biosciences

EPHB4 = target: T36, EPHB4 (Homo sapiens, UniProt P54760); assay: mobility shift assay
T36 construct: purchased Carna Biosciences

TAOK2 = target: T37, TAOK2 (Homo sapiens, UniProt Q9UL54); assay: mobility shift assay
T37 construct: purchased Carna Biosciences

IKKα = target: T38, IKKα (Homo sapiens, UniProt O15111); assay: IMAP Assay
T38 construct: purchased Carna Biosciences

CDK7/CycHMAT1 = CDK7/CycHMAT1 (Homo sapiens, UniProt P50613); assay: mobility shift assay; design: purchased Carna Biosciences
RSK3 = target: T39, RSK3 (Homo sapiens, UniProt Q15349); assay: mobility shift assay
T39 construct: purchased Carna Biosciences

Sequence of CDK7/CycHMAT1 (P50613 whole entry): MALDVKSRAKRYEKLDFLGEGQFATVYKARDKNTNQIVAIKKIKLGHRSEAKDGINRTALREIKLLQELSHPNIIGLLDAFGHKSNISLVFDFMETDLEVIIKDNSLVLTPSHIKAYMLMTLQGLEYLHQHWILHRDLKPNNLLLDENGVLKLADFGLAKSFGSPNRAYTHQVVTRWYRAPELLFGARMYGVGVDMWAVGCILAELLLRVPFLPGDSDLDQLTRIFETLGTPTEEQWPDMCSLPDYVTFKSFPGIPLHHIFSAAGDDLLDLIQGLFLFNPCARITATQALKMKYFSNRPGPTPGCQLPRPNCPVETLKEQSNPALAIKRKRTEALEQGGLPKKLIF
Sequence of CDK7/CycHMAT1 (P51946 whole entry partner): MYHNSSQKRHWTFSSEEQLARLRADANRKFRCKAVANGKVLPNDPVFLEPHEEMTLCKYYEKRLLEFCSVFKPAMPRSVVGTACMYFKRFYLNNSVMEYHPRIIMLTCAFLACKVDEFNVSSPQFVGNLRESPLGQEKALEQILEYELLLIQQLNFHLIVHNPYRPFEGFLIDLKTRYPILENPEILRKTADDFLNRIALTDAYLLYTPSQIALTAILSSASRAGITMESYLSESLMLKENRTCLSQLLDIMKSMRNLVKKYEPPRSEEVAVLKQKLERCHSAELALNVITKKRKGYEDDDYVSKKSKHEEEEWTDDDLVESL
Sequence of CDK7/CycHMAT1 (P51948 whole entry partner): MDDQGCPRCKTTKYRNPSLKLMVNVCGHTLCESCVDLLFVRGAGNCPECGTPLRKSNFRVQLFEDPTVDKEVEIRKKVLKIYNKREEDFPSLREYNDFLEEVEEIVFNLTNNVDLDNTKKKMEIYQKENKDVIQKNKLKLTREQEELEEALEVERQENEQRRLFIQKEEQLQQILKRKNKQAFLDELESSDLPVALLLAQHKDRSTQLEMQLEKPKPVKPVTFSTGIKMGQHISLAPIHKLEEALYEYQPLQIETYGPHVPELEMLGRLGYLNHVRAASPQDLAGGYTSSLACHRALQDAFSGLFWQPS
T18 sequence (Q00534 whole entry): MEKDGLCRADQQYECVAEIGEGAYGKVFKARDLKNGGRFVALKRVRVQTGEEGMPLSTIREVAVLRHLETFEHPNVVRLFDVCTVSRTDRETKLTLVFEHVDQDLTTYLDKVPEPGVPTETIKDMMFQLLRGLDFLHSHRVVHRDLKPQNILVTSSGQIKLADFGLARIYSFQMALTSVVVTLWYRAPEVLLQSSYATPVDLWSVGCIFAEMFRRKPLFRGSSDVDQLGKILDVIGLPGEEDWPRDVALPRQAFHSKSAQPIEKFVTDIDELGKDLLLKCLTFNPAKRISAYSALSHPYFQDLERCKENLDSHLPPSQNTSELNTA
T18 sequence (P30281 whole entry partner): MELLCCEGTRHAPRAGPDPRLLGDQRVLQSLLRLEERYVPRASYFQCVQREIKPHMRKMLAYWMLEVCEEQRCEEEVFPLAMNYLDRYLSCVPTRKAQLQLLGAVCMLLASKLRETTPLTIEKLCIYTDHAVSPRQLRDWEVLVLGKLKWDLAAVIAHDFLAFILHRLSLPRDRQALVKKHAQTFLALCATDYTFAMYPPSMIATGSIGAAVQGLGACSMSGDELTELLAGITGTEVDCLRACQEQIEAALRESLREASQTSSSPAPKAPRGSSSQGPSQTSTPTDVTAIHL
Sequence of PIM2 (Q9P1W9 whole entry): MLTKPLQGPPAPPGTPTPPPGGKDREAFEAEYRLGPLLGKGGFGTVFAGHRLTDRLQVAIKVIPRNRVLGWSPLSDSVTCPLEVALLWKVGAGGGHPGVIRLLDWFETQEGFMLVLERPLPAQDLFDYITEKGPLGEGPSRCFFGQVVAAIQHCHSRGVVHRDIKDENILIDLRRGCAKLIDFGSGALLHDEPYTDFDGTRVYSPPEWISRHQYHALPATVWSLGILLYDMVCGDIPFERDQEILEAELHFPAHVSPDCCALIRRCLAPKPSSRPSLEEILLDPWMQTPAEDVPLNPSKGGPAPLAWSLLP
T9 sequence (Q8TF76 whole entry): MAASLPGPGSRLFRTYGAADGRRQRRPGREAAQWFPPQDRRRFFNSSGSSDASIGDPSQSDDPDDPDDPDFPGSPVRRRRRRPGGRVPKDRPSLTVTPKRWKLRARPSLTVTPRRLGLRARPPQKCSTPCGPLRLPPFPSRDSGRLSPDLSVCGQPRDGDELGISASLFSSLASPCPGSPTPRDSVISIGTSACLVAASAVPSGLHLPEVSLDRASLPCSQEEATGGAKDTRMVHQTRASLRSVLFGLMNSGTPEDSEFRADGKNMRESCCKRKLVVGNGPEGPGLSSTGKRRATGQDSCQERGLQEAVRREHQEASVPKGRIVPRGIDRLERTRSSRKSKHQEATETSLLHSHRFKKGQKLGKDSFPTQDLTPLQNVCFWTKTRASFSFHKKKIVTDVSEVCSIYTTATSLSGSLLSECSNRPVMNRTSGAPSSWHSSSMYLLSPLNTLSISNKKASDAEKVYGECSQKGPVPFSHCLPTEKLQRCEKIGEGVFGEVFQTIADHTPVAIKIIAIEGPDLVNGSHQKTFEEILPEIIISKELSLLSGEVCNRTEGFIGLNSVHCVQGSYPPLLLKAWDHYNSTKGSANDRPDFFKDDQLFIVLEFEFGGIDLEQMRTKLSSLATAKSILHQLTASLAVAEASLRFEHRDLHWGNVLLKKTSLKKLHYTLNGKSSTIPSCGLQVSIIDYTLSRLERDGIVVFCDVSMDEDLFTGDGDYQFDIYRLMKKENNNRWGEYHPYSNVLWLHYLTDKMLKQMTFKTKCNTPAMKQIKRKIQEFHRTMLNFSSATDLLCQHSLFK
T10 sequence (P48730 whole entry): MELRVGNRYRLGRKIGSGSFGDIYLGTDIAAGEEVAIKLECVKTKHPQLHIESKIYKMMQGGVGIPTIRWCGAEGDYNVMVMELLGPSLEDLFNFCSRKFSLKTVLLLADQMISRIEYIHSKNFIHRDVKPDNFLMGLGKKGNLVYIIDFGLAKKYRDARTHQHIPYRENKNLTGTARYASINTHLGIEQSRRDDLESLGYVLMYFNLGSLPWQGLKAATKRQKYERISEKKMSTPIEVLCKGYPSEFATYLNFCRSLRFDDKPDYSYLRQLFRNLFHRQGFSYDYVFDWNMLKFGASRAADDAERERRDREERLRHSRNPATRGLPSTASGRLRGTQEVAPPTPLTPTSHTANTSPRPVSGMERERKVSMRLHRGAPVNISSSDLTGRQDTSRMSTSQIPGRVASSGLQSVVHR
T7 sequence (P10721 26-976): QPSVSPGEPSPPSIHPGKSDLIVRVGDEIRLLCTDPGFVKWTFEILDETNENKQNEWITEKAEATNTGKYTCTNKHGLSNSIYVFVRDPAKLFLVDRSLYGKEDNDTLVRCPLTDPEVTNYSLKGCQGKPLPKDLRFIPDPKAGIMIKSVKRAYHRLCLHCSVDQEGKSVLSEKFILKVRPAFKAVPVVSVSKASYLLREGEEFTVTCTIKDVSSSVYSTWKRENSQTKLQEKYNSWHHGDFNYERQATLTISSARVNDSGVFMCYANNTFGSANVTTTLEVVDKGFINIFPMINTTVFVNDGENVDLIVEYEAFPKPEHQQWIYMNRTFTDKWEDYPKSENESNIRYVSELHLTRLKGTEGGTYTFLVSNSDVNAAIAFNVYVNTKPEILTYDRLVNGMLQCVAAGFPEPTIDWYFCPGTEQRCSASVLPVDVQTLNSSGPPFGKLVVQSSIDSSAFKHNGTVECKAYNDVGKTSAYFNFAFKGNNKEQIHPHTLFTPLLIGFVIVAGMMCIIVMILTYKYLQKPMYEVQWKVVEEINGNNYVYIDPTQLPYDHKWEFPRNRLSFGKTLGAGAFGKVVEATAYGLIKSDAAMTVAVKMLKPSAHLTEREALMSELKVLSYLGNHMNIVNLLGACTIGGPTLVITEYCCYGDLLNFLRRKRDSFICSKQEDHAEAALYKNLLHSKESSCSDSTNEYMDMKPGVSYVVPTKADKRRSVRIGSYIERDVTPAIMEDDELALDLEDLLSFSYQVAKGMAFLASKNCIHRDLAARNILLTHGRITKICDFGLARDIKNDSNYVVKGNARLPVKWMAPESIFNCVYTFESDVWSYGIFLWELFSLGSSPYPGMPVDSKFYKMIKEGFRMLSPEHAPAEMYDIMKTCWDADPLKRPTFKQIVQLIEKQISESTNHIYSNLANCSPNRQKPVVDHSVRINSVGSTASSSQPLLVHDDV
T24 sequence (Q96BR1 whole entry): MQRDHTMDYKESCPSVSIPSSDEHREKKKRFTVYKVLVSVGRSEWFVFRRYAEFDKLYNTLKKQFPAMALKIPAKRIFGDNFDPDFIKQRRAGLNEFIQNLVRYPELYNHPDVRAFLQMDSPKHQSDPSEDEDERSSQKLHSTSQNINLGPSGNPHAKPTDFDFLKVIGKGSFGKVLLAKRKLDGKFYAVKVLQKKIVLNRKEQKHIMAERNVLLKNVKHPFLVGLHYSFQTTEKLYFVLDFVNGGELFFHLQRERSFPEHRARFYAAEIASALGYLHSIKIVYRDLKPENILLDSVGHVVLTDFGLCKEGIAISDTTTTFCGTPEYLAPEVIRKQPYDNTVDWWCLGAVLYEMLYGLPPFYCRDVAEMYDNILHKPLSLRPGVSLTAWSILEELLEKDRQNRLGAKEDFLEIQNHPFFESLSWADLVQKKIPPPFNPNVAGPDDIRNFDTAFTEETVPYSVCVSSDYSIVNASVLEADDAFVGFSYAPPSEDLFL

Q: Which results are given for C[C@@H]1CC[C@H]2C(C)(C)CCC[C@]2(C)c2c1oc1c(C=O)c(O)c(O)cc21 [LG-1, liphagal]?
A: inhibition at 10 µM (PIM2; PIM2): 63.5%; inhibitory activity against PIM2 (PIM2; in words, 10 μM): potent inhibitory activity; inhibition at 10 µM (WNK2): 20.7%; inhibition at 10 µM (RET(M918T)): 5.9%; inhibition at 10 µM (BRAF(V600E)_Cascade): 19.5%; inhibition at 10 µM (MUSK): -8.4%; inhibition at 10 µM (PDHK4): 7.4%; inhibition at 10 µM (TRKA): 36.4%; inhibition at 10 µM (KIT): 6%; inhibition at 10 µM (EPHA1): 0.5%; inhibition at 10 µM (Haspin): 3.3%; inhibition at 10 µM (OK1δ): 4.1%; inhibition at 10 µM (AKT2): 6.2%; inhibition at 10 µM (JNK3): -5.8%; inhibition at 10 µM (MGC42105): -1.7%; inhibition at 10 µM (DYRK1A): 10.5%; inhibition at 10 µM (BRAF_Cascade): 15%; inhibition at 10 µM (MAP2K1 Cascade): 4.1%; inhibition at 10 µM (p38B): 9.1%; inhibition at 10 µM (COK6/CycD3; COK6/CycD3): 72.7%; inhibitory activity against CDK6 (COK6/CycD3; in words, 10 μM): Potent inhibitory activity; inhibition at 10 µM (HER4): 17.9%; inhibition at 10 µM (MAP2K3_Cascade): 25.6%; inhibition at 10 µM (SRM): 19%; inhibition at 10 µM (MNK1): 5.3%; inhibition at 10 µM (CDK9/CvcT1): 18.8%; inhibition at 10 µM (SGK3): -0.5%; inhibition at 10 µM (SkMLCK): -1.3%; inhibition at 10 µM (EGFR(d746-750/T790M)): 2.5%; inhibition at 10 µM (PIM 3): 28.9%; inhibition at 10 µM (FLT3): 2.1%; inhibition at 10 µM (MER): 2.1%; inhibition at 10 µM (FGFR1): -2.3%; inhibition at 10 µM (M88K1): 9.3%; inhibition at 10 µM (CK1y3): 3%; inhibition at 10 µM (MAP2K5 Cascade): -1.3%; inhibition at 10 µM (FM8): 12.5%; inhibition at 10 µM (EPHA2): 2.6%; inhibition at 10 µM (EPHB4): -1.2%; inhibition at 10 µM (TAOK2): 24.5%; inhibition at 10 µM (IKKα): 34.4%; inhibition at 10 µM (CDK7/CycHMAT1; CDK7/CycHMAT1): 85.8%; inhibitory activity against CDK7 (CDK7/CycHMAT1; in words, 10 μM): Potent inhibitory activity; inhibition at 10 µM (RSK3): 8.1%
